Where two headings read alike, the source gives them in different places.
What was measured:
Salmonella Newport = test: Biofilm formation on food contact surface coupons, direct plating; type: cell-based, Salmonella enterica; conditions: two-minute treatment
Method: A protocol based on direct plating was also evaluated for testing the biofilm formation by Salmonella or L. monocytogenes. Biofilms were formed on three different food contact surface coupons (HDPE, Buna-N rubber, and 316 stainless steel) for up to 3 days in 35 mm mini-petri dishes. Biofilms were formed using a 1:10 diluted TSB solution (10 mL) with either S. enterica or L. monocytogenes inoculum (100 μL). The diluted TSB was changed every 16-18 hours with new 1:10 diluted TSB (10 mL). Coupons were removed for sampling and enumeration of strongly attached bacteria at three different time points (Day 0, 1, and 3). The coupons were rinsed with deionized water five times to remove planktonic cells. Then the coupons were immersed in 10 mL of BPW. The coupons were sonicated for 2 minutes using different settings (Tables 11 and 12) for each organism. After sonication, the solution was serially diluted and plated on Tryptic Soy Agar (TSA). Plates were incubated at 37° C. for 24-48 hours. The colonies were counted and the colony forming units were determined for the various sonication settings, so that the appropriate setting with the most recovery could be determined. […] These settings were used in further experiments to recover the bacterial cells from coupons during sampling and enumeration (by spread plating) of the bacteria in biofilms.
The reduction in bacterial biofilm formation was also tested using a direct plating method. Biofilms were formed on six different food contact surface coupons (HDPE, Buna-N rubber, PC, PVC, and stainless steel 304 and 316) in separate 35 mm mini-petri dishes and evaluated at three different time points (Day 0, 1, and 3). Biofilms were formed using a 1:10 diluted TSB solution (10 mL) with either S. enterica or L. monocytogenes inoculum (100 μL). The coupons were also washed and treated with antimicrobial solutions containing the plant-based emulsifier and the essential oil/plant extracts at various concentrations. The diluted TSB was changed every 16-18 hours with new 1:10 diluted TSB (10 mL). The coupons were rinsed in the antimicrobial solution before adding them to the petri dishes containing the fresh, diluted TSB. After their specific time points, coupons were removed aseptically using sterile forceps from the petri dish. The coupons were rinsed by submerging in 25 mL of sterile deionized H2O and swirled five times to remove planktonic cells. After rinsing, they were placed into a new petri dish immersed in 10 mL of BPW. The coupons were sonicated for 2 minutes on ice using different settings for each organism. After sonication, the sonicated solution was serially diluted using 0.1% peptone water and spread plated on TSA in duplicate. Plates were incubated overnight at 37° C. for 24-48 hours, after which, the colonies were counted, to establish the efficacy of the antimicrobial solutions (Tables 17-25).

S. Newport = conditions: used alone, previous work, cited from earlier work

**Q.** Which “Survivors of Salmonella Newport on food contact surface” value (“Survivors of Salmonella Newport” for short) (Salmonella Newport; 0.5% with 0.0001% saponin microemulsion, Day 0, 304 SS) does the source give for Cc1ccc(C(C)C)cc1O [Carvacrol, carvacrol] here?
**A.** 4.75 Log CFU/mL

**Q.** And the “Survivors of Salmonella Newport” value (Salmonella Newport; 0.5% with 0.0001% saponin microemulsion, Day 0, 316 SS)?
**A.** 4.66 Log CFU/mL

**Q.** And the “Survivors of Salmonella Newport” value (Salmonella Newport; 0.5% with 0.0001% saponin microemulsion, Day 0, Buna N)?
**A.** 4.19 Log CFU/mL

**Q.** And the “Survivors of Salmonella Newport” value (Salmonella Newport; 0.5% with 0.0001% saponin microemulsion, Day 0, HDPE)?
**A.** <1 Log CFU/mL

**Q.** And the “Survivors of Salmonella Newport” value (Salmonella Newport; 0.5% with 0.0001% saponin microemulsion, Day 0, PC)?
**A.** <1 Log CFU/mL

**Q.** And the “Survivors of Salmonella Newport” value (Salmonella Newport; 0.5% with 0.0001% saponin microemulsion, Day 0, PVC)?
**A.** 2.74 Log CFU/mL

**Q.** And the “Survivors of Salmonella Newport” value (Salmonella Newport; 0.5% with 0.0001% saponin microemulsion, Day 1, 304 SS)?
**A.** 4.26 Log CFU/mL

**Q.** What about the “Survivors of Salmonella Newport” value (Salmonella Newport; 0.5% with 0.0001% saponin microemulsion, Day 1, 316 SS) of the same molecule?
**A.** 4.42 Log CFU/mL

**Q.** And the “Survivors of Salmonella Newport” value (Salmonella Newport; 0.5% with 0.0001% saponin microemulsion, Day 1, Buna N)?
**A.** 4.65 Log CFU/mL

**Q.** And the “Survivors of Salmonella Newport” value (Salmonella Newport; 0.5% with 0.0001% saponin microemulsion, Day 1, HDPE)?
**A.** <1 Log CFU/mL

**Q.** What about the “Survivors of Salmonella Newport” value (Salmonella Newport; 0.5% with 0.0001% saponin microemulsion, Day 1, PC) of the same molecule?
**A.** <1 Log CFU/mL

**Q.** What about the “Survivors of Salmonella Newport” value (Salmonella Newport; 0.5% with 0.0001% saponin microemulsion, Day 1, PVC) of the same molecule?
**A.** 4.24 Log CFU/mL

**Q.** What about the “Survivors of Salmonella Newport” value (Salmonella Newport; 0.5% with 0.0001% saponin microemulsion, Day 3, 304 SS) of the same molecule?
**A.** <1 Log CFU/mL

**Q.** What about the “Survivors of Salmonella Newport” value (Salmonella Newport; 0.5% with 0.0001% saponin microemulsion, Day 3, 316 SS) of the same molecule?
**A.** <1 Log CFU/mL

**Q.** What about the “Survivors of Salmonella Newport” value (Salmonella Newport; 0.5% with 0.0001% saponin microemulsion, Day 3, Buna N) of the same molecule?
**A.** <1 Log CFU/mL

**Q.** What about the “Survivors of Salmonella Newport” value (Salmonella Newport; 0.5% with 0.0001% saponin microemulsion, Day 3, HDPE) of the same molecule?
**A.** <1 Log CFU/mL

**Q.** And the “Survivors of Salmonella Newport” value (Salmonella Newport; 0.5% with 0.0001% saponin microemulsion, Day 3, PC)?
**A.** <1 Log CFU/mL

**Q.** What about the “Survivors of Salmonella Newport” value (Salmonella Newport; 0.5% with 0.0001% saponin microemulsion, Day 3, PVC) of the same molecule?
**A.** <1 Log CFU/mL

**Q.** What about the “Survivors of Salmonella Newport” value (Salmonella Newport; 0.7% with 0.0001% saponin microemulsion, Day 0, 304 SS) of the same molecule?
**A.** 4.57 Log CFU/mL

**Q.** What about the “Survivors of Salmonella Newport” value (Salmonella Newport; 0.7% with 0.0001% saponin microemulsion, Day 0, 316 SS) of the same molecule?
**A.** 4.24 Log CFU/mL

**Q.** And the “Survivors of Salmonella Newport” value (Salmonella Newport; 0.7% with 0.0001% saponin microemulsion, Day 0, Buna N)?
**A.** 4.44 Log CFU/mL

**Q.** And the “Survivors of Salmonella Newport” value (Salmonella Newport; 0.7% with 0.0001% saponin microemulsion, Day 0, HDPE)?
**A.** 4.24 Log CFU/mL

**Q.** And the “Survivors of Salmonella Newport” value (Salmonella Newport; 0.7% with 0.0001% saponin microemulsion, Day 0, PC)?
**A.** 4.18 Log CFU/mL

**Q.** And the “Survivors of Salmonella Newport” value (Salmonella Newport; 0.7% with 0.0001% saponin microemulsion, Day 0, PVC)?
**A.** 4.63 Log CFU/mL

**Q.** And the “Survivors of Salmonella Newport” value (Salmonella Newport; 0.7% with 0.0001% saponin microemulsion, Day 1, 304 SS)?
**A.** <1 Log CFU/mL

**Q.** What about the “Survivors of Salmonella Newport” value (Salmonella Newport; 0.7% with 0.0001% saponin microemulsion, Day 1, 316 SS) of the same molecule?
**A.** <1 Log CFU/mL

**Q.** What about the “Survivors of Salmonella Newport” value (Salmonella Newport; 0.7% with 0.0001% saponin microemulsion, Day 1, Buna N) of the same molecule?
**A.** <1 Log CFU/mL

**Q.** What about the “Survivors of Salmonella Newport” value (Salmonella Newport; 0.7% with 0.0001% saponin microemulsion, Day 1, HDPE) of the same molecule?
**A.** <1 Log CFU/mL

**Q.** And the “Survivors of Salmonella Newport” value (Salmonella Newport; 0.7% with 0.0001% saponin microemulsion, Day 1, PC)?
**A.** <1 Log CFU/mL

**Q.** What about the “Survivors of Salmonella Newport” value (Salmonella Newport; 0.7% with 0.0001% saponin microemulsion, Day 1, PVC) of the same molecule?
**A.** <1 Log CFU/mL

**Q.** And the “Survivors of Salmonella Newport” value (Salmonella Newport; 0.7% with 0.0001% saponin microemulsion, Day 3, 304 SS)?
**A.** <1 Log CFU/mL

**Q.** What about the “Survivors of Salmonella Newport” value (Salmonella Newport; 0.7% with 0.0001% saponin microemulsion, Day 3, 316 SS) of the same molecule?
**A.** <1 Log CFU/mL

**Q.** What about the “Survivors of Salmonella Newport” value (Salmonella Newport; 0.7% with 0.0001% saponin microemulsion, Day 3, Buna N) of the same molecule?
**A.** <1 Log CFU/mL

**Q.** What about the “Survivors of Salmonella Newport” value (Salmonella Newport; 0.7% with 0.0001% saponin microemulsion, Day 3, HDPE) of the same molecule?
**A.** <1 Log CFU/mL

**Q.** What about the “Survivors of Salmonella Newport” value (Salmonella Newport; 0.7% with 0.0001% saponin microemulsion, Day 3, PC) of the same molecule?
**A.** <1 Log CFU/mL

**Q.** What about the “Survivors of Salmonella Newport” value (Salmonella Newport; 0.7% with 0.0001% saponin microemulsion, Day 3, PVC) of the same molecule?
**A.** <1 Log CFU/mL

**Q.** What about the “Survivors of Salmonella Newport” value (Salmonella Newport; 1% with 0.0001% saponin microemulsion, Day 0, 304 SS) of the same molecule?
**A.** <1 Log CFU/mL

**Q.** And the “Survivors of Salmonella Newport” value (Salmonella Newport; 1% with 0.0001% saponin microemulsion, Day 0, 316 SS)?
**A.** <1 Log CFU/mL

**Q.** What about the “Survivors of Salmonella Newport” value (Salmonella Newport; 1% with 0.0001% saponin microemulsion, Day 0, Buna N) of the same molecule?
**A.** <1 Log CFU/mL

**Q.** What about the “Survivors of Salmonella Newport” value (Salmonella Newport; 1% with 0.0001% saponin microemulsion, Day 0, HDPE) of the same molecule?
**A.** <1 Log CFU/mL

**Q.** And the “Survivors of Salmonella Newport” value (Salmonella Newport; 1% with 0.0001% saponin microemulsion, Day 0, PC)?
**A.** <1 Log CFU/mL

**Q.** What about the “Survivors of Salmonella Newport” value (Salmonella Newport; 1% with 0.0001% saponin microemulsion, Day 0, PVC) of the same molecule?
**A.** <1 Log CFU/mL

**Q.** And the “Survivors of Salmonella Newport” value (Salmonella Newport; 1% with 0.0001% saponin microemulsion, Day 1, 304 SS)?
**A.** <1 Log CFU/mL

**Q.** What about the “Survivors of Salmonella Newport” value (Salmonella Newport; 1% with 0.0001% saponin microemulsion, Day 1, 316 SS) of the same molecule?
**A.** <1 Log CFU/mL

**Q.** What about the “Survivors of Salmonella Newport” value (Salmonella Newport; 1% with 0.0001% saponin microemulsion, Day 1, Buna N) of the same molecule?
**A.** <1 Log CFU/mL

**Q.** What about the “Survivors of Salmonella Newport” value (Salmonella Newport; 1% with 0.0001% saponin microemulsion, Day 1, HDPE) of the same molecule?
**A.** <1 Log CFU/mL

**Q.** What about the “Survivors of Salmonella Newport” value (Salmonella Newport; 1% with 0.0001% saponin microemulsion, Day 1, PC) of the same molecule?
**A.** <1 Log CFU/mL

**Q.** What about the “Survivors of Salmonella Newport” value (Salmonella Newport; 1% with 0.0001% saponin microemulsion, Day 1, PVC) of the same molecule?
**A.** <1 Log CFU/mL

**Q.** What about the “Survivors of Salmonella Newport” value (Salmonella Newport; 1% with 0.0001% saponin microemulsion, Day 3, 304 SS) of the same molecule?
**A.** <1 Log CFU/mL

**Q.** What about the “Survivors of Salmonella Newport” value (Salmonella Newport; 1% with 0.0001% saponin microemulsion, Day 3, 316 SS) of the same molecule?
**A.** <1 Log CFU/mL

**Q.** And the “Survivors of Salmonella Newport” value (Salmonella Newport; 1% with 0.0001% saponin microemulsion, Day 3, Buna N)?
**A.** <1 Log CFU/mL

**Q.** What about the “Survivors of Salmonella Newport” value (Salmonella Newport; 1% with 0.0001% saponin microemulsion, Day 3, HDPE) of the same molecule?
**A.** <1 Log CFU/mL

**Q.** What about the “Survivors of Salmonella Newport” value (Salmonella Newport; 1% with 0.0001% saponin microemulsion, Day 3, PC) of the same molecule?
**A.** <1 Log CFU/mL

**Q.** What about the “Survivors of Salmonella Newport” value (Salmonella Newport; 1% with 0.0001% saponin microemulsion, Day 3, PVC) of the same molecule?
**A.** <1 Log CFU/mL

**Q.** And the “reduction of S. Newport on iceberg lettuce” value (“reduction of S. Newport” for short) (S. Newport; 0.1%)?
**A.** 1 log CFU/g

**Q.** What about the “reduction of S. Newport” value (S. Newport; 0.3%) of the same molecule?
**A.** over 5 log CFU/g

**Q.** What about the “reduction of S. Newport” value (S. Newport; 0.5%) of the same molecule?
**A.** over 5 log CFU/g
